Experimental data as given in US7179616B1, “Method for detecting phosphatidylserine on the surface of cells” (University of Notre Dame du Lac, priority 2002, dated 2007).
Entries after “also recorded” stand apart in the source; their conditions may differ.

Assays:
apoptotic cells [1] = settings: cited from earlier work
POPC:POPS vesicles = test: Vesicle fluorescence titration of PSS-380, POPC:POPS vesicles; type: binding; settings: HEPES 10 mM
Description: (§1) Unilamellar vesicles were prepared by initial hydration of a dried lipid film followed by repeated extrusion through polycarbonate membranes having a pore size of 100 nm. Aliquots of vesicle suspension were added to a solution of PSS-380 (1 μM, 3 mL) in HEPES buffer (10 mM) at pH 7.2. The fluorescence emission intensity at 440 nm (ex 380 nm) was measured 15 seconds after the addition of each aliquot.

[2] = tested on: POPC:POPG (50:50) vesicles; test: Vesicle fluorescence titration of PSS-380, POPC:POPG vesicles; type: binding; settings: 50:50, PSS-380 1 μM, HEPES 10 mM, pH 7.2, ex 380, em 440 nm
Description: as §1

[3] = tested on: POPC:POPA (50:50) vesicles; test: Vesicle fluorescence titration of PSS-380, POPC:POPA vesicles; type: binding; settings: 50:50, PSS-380 1 μM, HEPES 10 mM, pH 7.2, ex 380, em 440 nm
Description: as §1

100% POPC vesicles = test: Vesicle fluorescence titration of PSS-380, zwitterionic POPC vesicles; type: binding
Description: as §1

[4] = tested on: vesicle membranes containing anionic phospholipids (phosphatidylserine, phosphatidylglycerol, phosphatidic acid); test: Fluorescence response to vesicle membranes containing anionic phospholipids; type: binding; settings: more than a few percent of phosphatidylserine, phosphatidylglycerol or phosphatidic acid
Description: as §1

[5] = Fluorescence titration with monodispersed phospholipids; type: binding; settings: DHPC:DHPS (1:1) titration, micromolar concentrations
Excerpt: (§2) Although the fluorescence emission of PSS-380 increases in the presence of vesicles containing PS, it is unchanged if the PS is monodispersed. […] Titration of PSS-380 with increasing amounts of a DHPC:DHPS (1:1) mixture results in no change in fluorescence intensity. Further evidence that PSS-380 has a weak affinity for DHPS and DHPC in water was gained from ^31P NMR titration experiments. The ^31P signals for phospholipid head groups hardly move upon addition of PSS-380. This is in line with previous studies with PSS-380 showing that it has low affinity for neutral or mono-anionic molecules in water, Ojida, A., Mito-Oka, Y., Inoue, M. A. & Hamachi, I. (2002) J. Am. Chem. Soc., 124, 6256–6258, the entire contents and disclosure of which is hereby incorporated by reference.

[6] = 31P NMR titration with DHPS and DHPC in water; type: binding
Excerpt: as §2

erythrocytes = test: Erythrocyte studies, normal versus scrambled erythrocytes; type: cell-based, human; settings: PSS-380 1 μM, 5 mM TES, 150 mM NaCl, pH 7.4, 4×10^9 erythrocytes
Description: Aliquots (10 μL) containing 4.0×10^9 of normal or “scrambled” erythrocytes were added to a solution of PSS-380 (1 μM, 3 mL) in 5 mM TES, 150 mM NaCl, pH 7.4. The erythrocytes were prepared in the following way. Fresh human blood was collected in ice-cold phosphate-buffered-saline (PBS) containing 10 U/mL of heparin. The samples were centrifuged and the supernatant and the top 10% of the erythrocytes were removed. The wash was repeated two more times. An equal volume of PBS was added to the remaining pellet. The desired number of cells was removed, centrifuged and the supernatant discarded. Four volumes of lysis buffer (0.1×PBS containing 0.1 mM EGTA, 1 mM MgCl2, and 1% BSA, plus 1 mM CaCl2 for “scrambled” erythrocytes only) were added to the pellet. The suspensions were vortexed and the lysed cells were placed on ice. After 2 minutes, the cells were resealed by adding 0.4 volumes (relative to the size of the original pellet) of 10×PBS. The tubes were gently inverted and warmed to 37° C. After 30 minutes, 100 volumes of PBS were added, then the cells were centrifuged into pellets, washed three times, and resuspended in TES buffer for use.

Jurkat cells [7] = test: Single-well bulk fluorescence assay for apoptosis; type: cell-based; settings: apoptosis induced by camptothecin
Description: The ability of PSS-380 to detect cell apoptosis was also examined in the present invention. This was approached in three ways. First, it was assessed whether PSS-380 could be used in a single-well, bulk fluorescence assay for apoptosis. […] Thus, cell apoptosis may be detected qualitatively using PSS-380 in a simple, single-well, bulk fluorecence assay.

apoptotic cells [8] = test: Cell staining and fluorescence microscopy of apoptotic cells; type: cell-based
Description: Jurkat E6-1 cells were grown in RPMI 1640 growth media supplemented with 10% fetal bovine serum. MCF-7 cells were grown in DMEM growth media with 10% fetal bovine serum. […] Suspended cells (Jurkat) were grown to a density of 1×10^6 cells/mL. Before staining with annexin V-FITC, the growth media was changed to a binding buffer containing 5 mM TES/145 mM NaCl, 2.5 mM CaCl2, at pH 7.4. The cells were incubated with annexin V-FITC (10 μL of Pharmingen stock solution per mL cell suspension), 7AAD (5 μL of 50 μg/mL stock solution per mL cell suspension), and PSS-380 (20 μL of 1 mM stock solution per mL cell suspension) for 15 minutes at 37° C. The incubation mixture was aspirated and changed to a buffer containing 5 mM TES, 145 mM NaCl, pH 7.4. At this point, the Jurkat cell suspensions were added to 16-well chamber-slides. Cells were observed directly on an Axiovert S100 TV microscope (Carl Zeiss) equipped with filter sets DAPI/Hoechst/[…]/Bodipy/Fluo3/DiO, Cy3 (Chroma). Pictures were taken using a black and white digital camera and colored afterwards using Photoshop 6.0 software package (Adobe). Fluorescence microscopy was also used to evaluate if PSS-380 could identify sub-populations of live, apoptotic, and dead cells. Cell apoptosis was induced by treatment with camptothecin, or the calcium ionophore A23187. The drug-treated cells and untreated control cells were subsequently stained with a mixture of annexin V-FITC (green), PSS-380 (blue) and 7AAD (red). FIGS. 5, 6 and 7 display typical microscopic images produced using this method. Live cells are not stained by any of the dyes; whereas, staining by 7AAD identifies dead cells with permeable membranes. Cells that are only stained by annexin V-FITC or PSS-380 are defined as apoptotic. The microscopic images show a slight statistical variation in cell staining, due in part to the fact that PSS-380 and annexin V-FITC are competing for the same cell surface binding sites. If the staining experiments are repeated using either annexin V or PSS-380 alone, the emission from positive cells is more homogeneous and with similar intensity.

Jurkat cells [9] = test: Toxicity of PSS-380, flow cytometry with PI; type: cell-based; settings: 100 μM, one hour
Description: Tests were performed to establish the toxicity of PSS-380.

[10] = in water; cited from earlier work
[11] = tested on: membranes that are rich in PS; settings: cited from earlier work

CCCCN1C(=O)C(=C/C=C/C=C2\Oc3ccccc3N2CCCS(=O)(=O)[O-])C(=O)N(CCCC)C1=S.[Na+] [MC540]
signal difference between normal cells and apoptotic cells (apoptotic cells [1]): about five fold

O=[N+]([O-])[O-].O=[N+]([O-])[O-].O=[N+]([O-])[O-].O=[N+]([O-])[O-].[Zn+2].[Zn+2].c1ccc(CN(Cc2ccccn2)Cc2c3ccccc3c(CN(Cc3ccccn3)Cc3ccccn3)c3ccccc23)nc1 [PSS-380]
change in fluorescence intensity, POPC:POPS 50:50 vesicles (POPC:POPS vesicles; 50:50, PSS-380 1 μM, pH 7.2, ex 380, em 440 nm): ten-fold increase | change in fluorescence emission, vesicles containing 5 mol % of POPS (POPC:POPS vesicles; POPC:POPS 95:5, PSS-380 1 μM, pH 7.2): four-fold rise | change in fluorescence intensity, POPC:POPG vesicles [2]: eleven-fold increase | change in fluorescence intensity, POPC:POPA vesicles [3]: six-fold increase | affinity with membranes composed only of zwitterionic phospholipids (100% POPC vesicles): no apparent affinity | change in fluorescence after addition of zwitterionic POPC vesicles (100% POPC vesicles; PSS-380 1 μM, HEPES 10 mM, pH 7.2, ex 380, em 440 nm): not affected; also recorded: No change | change in fluorescence intensity with vesicle membranes containing anionic phospholipids [4]: increases up to ten-fold | change in fluorescence intensity with monodispersed phospholipids [5]: not affected; also recorded: no change | movement of 31P signals for phospholipid head groups upon addition of sensor [6]: hardly move | fluorescence induced by scrambled erythrocytes compared to equal number of normal erythrocytes (erythrocytes): much higher | emission in presence of apoptotic Jurkat cells versus equal number of live cells (Jurkat cells [7]): twice as intense (±5%) | effect of the presence of Ca^2+ on binding to apoptotic cells (apoptotic cells [8]): not noticeably inhibited | speed of binding to apoptotic cells (apoptotic cells [8]): almost instantaneous | staining after treatment with 10 mM EDTA (apoptotic cells [8]; 10 mM EDTA): fades rapidly | staining intensity compared with annexin V (apoptotic cells [8]; microscopy data): more intense than annexin V | change in cell viability, judged by PI staining (Jurkat cells [9]): no change in cell viability | association constant for phosphorylated compounds like phosphotyrosine [10]: around 10^7 M^−1

CCCCN(CCCC)c1ccc(/C=C/c2cc[n+](CCC[N+](CC)(CC)CC)cc2)cc1.[Br-].[Br-] [FM1-43]
signal difference between normal cells and apoptotic cells (apoptotic cells [1]): 6–10 fold

anthracene zinc dipicolylamine [AZD, reference compound]
change in fluorescence intensity with vesicle membranes containing anionic phospholipids [4]: hardly changed

annexin V: 35 Kd PS-binding protein
incubation time required for complete binding [11]: up to one hour | association constant for binding to membranes that are rich in PS ([11]; in the presence of sufficient calcium): around 10^8 M^−1 | signal difference between normal cells and apoptotic cells (apoptotic cells [1]): up to 100 fold
